The subject of assay [1] is osteoblastic and osteoclastic activity. The settings on record: cited from earlier work.
The test system of assay [2] is human adipocytes. The following applies: acute administration; ex vivo and in vivo glucose uptake; cited from earlier work. An excerpt: Another important focus of this study was the effect of GIP108 and NN‐GIPR‐Ant administration on insulin sensitivity.
For assay [3] the following is noted: human study, 6‐day GIP infusion; cited from earlier work. An excerpt:
We also investigated the effects of GIPR agonism and antagonism on liver triglyceride content.

The subject of assay [4] is glucagon secretion. The settings on record: cited from earlier work. The source says:
We next investigated the effects of GIP108 and NN‐GIPR‐Ant administration on insulin sensitivity.

In assay [5] the test system is CTX. The following applies: rodent models and humans; cited from earlier work.
Assay [6] deals with mouse GIPR. In words: HTRF cAMP assay, AD293 cells transiently transfected with mGIPR. It counts as cell-based. The following applies: 30 min, n = 3. An excerpt:
For the antagonist we used a long‐acting GIPR antagonist, named throughout as NN‐GIPR‐Ant, previously characterised by Yang et al.[7] We first confirmed the actions of NN‐GIPR‐Ant as a mouse GIPR antagonist, performing in vitro cAMP assays in AD293 cells, a human embryonic kidney cell line commonly used in G‐protein coupled receptor research due to rapid division and ease of receptor transfection.
(A–C) Amino acid sequences of hGIP (A), GIP108 (B) and NN‐GIPR‐Ant (C). AIB = 2‐aminoisobutyric acid. Side chains denote fatty acid tails. (D–F) cAMP measurements in AD293 cells transiently transfected with the mGIPR (D), mGLP‐1R (E) and mGCGR (F) and stimulated for 30 min with the indicated peptide (n = 3), with three parameter curve fits plotted. (G, H) 60‐min intraperitoneal glucose tolerance test in lean mice (n = 8). (G) Plasma glucose over time with glucose ± hGIP injected at t = 0 and NN‐GIPR‐Ant injected at t = −120 min, analysed using two‐way ANOVA with time and subgroup as co‐variables. (H) Glucose AUC derived from the time course in (H), analysed using a one‐way ANOVA. Dunnett's test was used to correct for multiple comparisons against vehicle control. […] The colour of the star denotes which group is statistically different compared to vehicle control. […]
In general terms: In TR-FRET formats the signal depends on donor and acceptor labels being close together.

Assay [7] has as its system GIPR. In words: Intraperitoneal glucose tolerance test in lean mice, hGIP with NN-GIPR-Ant (in vivo antagonism). Also noted: species or system mouse. The settings on record: n = 8, hGIP 50 nmol/kg with glucose 2 g/kg at t = 0. On the procedure: (A–C) Amino acid sequences of hGIP (A), GIP108 (B) and NN‐GIPR‐Ant (C). AIB = 2‐aminoisobutyric acid. Side chains denote fatty acid tails. (D–F) cAMP measurements in AD293 cells transiently transfected with the mGIPR (D), mGLP‐1R (E) and mGCGR (F) and stimulated for 30 min with the indicated peptide (n = 3), with three parameter curve fits plotted. (G, H) 60‐min intraperitoneal glucose tolerance test in lean mice (n = 8). (G) Plasma glucose over time with glucose ± hGIP injected at t = 0 and NN‐GIPR‐Ant injected at t = −120 min, analysed using two‐way ANOVA with time and subgroup as co‐variables. (H) Glucose AUC derived from the time course in (H), analysed using a one‐way ANOVA. Dunnett's test was used to correct for multiple comparisons against vehicle control. […] The colour of the star denotes which group is statistically different compared to vehicle control.
All animal procedures were approved by the British Home Office under the UK Animals (Scientific Procedures) Act 1986, and Amendment Regulations, 2012 and approved by the Imperial College London Animal Welfare and Ethical Review Body. Wild type male C57BL/6J mice (8-14 weeks; Charles River, UK) were used. […]
Mice were fasted at 08:00. […] Total glucose AUC was calculated by trapezoidal rule using y=0 as baseline. Glucose readings were measured in mmol/L using the same ISO15197-compliant GlucoRx Nexus (GlucoRx, Guildford, UK) glucometer.

For assay [8], the system named is humans. The settings on record: ref 12 (as cited in b3; abstract prints none); cited from earlier work.

On to “glucose‐dependent insulinotropic polypeptide [GIP]”, for which the “osteoblastic and osteoclastic activity” value in assay [1] was “increases osteoblastic and suppresses osteoclastic activity”. Moreover, the “insulin sensitising effect in human adipocytes” value in assay [2] was “increasing adipocyte glucose uptake both ex vivo and in vivo”. The liver fat entry in assay [3] is listed as “increased liver fat”. The “glucagon secretion in hypoglycaemia” value in assay [4] is listed as “potently stimulate glucagon secretion in hypoglycaemia”. The “CTX levels, acute” value in assay [5] was “acutely lowers CTX levels”.

For the substance “hGIP: hGIP(1‐42); sequence in Figure 1A (YAEGTFISDYSIAMDKIHQQDFVNWLLAQKGKKNDWKHNITQ; Gastric inhibitory polypeptide; UniProt P09681 52-93, looked up)”, the “stimulation of cAMP at mouse GIPR” value in assay [6] was “ability to stimulate cAMP”. Further, the “improvement of glucose tolerance by hGIP” value in assay [7] was “improve glucose tolerance”.

As to “maridebart cafraglutide: Amgen's high‐affinity GIPR antagonist antibody with GLP‐1R agonist conjugate arms”, the “weight loss effects in humans” value in assay [8] is on record as “significant weight loss effects in humans”.

Source of the values: article PMC12803606, “A metabolic comparison of GIPR agonism versus GIPR antagonism in male mice” (Diabetes, Obesity & Metabolism, 2025).
